Columns and labels:
[1] = test system: MCF7ADR (adriamycin resistant breast adenocarcinoma); assay: In vitro growth inhibition screen (sulphorhodamine B), MCF7ADR; format: cell-based, human; conditions: MCF7ADR cells, incubated for 48 hours, sulphorhodamine B dye; read-out: GI50 (concentration which inhibits the cell growth by 50%), MCF7ADR Adriamycin Resistant Breast adenocarcinoma
Method: (§1) Each agent was tested over a broad concentration range (ten-fold dilutions starting from ≧100 μM to 10 nM) against 6 human cancer cell lines which was comprised of different tumor types. These are DU145 (prostate carcinoma), HT29 (colorectal adenocarcinoma), LOX (melanoma), MCF7 (breast adenocarcinoma), MCF7ADR (adriamycin resistant breast adenocarcinoma), and U251 (human glioblastoma). A standard compound doxorubicin was tested in each assay as a positive control. The cells were maintained in growing condition in RPMI 1640 medium containing 10% fetal calf serum and incubated at 37° C. under 5% CO2 atmosphere. All cell lines were inoculated onto a series of standard 96-well microtitre plate on day zero, followed by twenty four-hour incubation in the absence of test compound. The inoculation densities in the screen were as per Monk et al., (1991) J. Natl. Cancer Inst., 83, 757-766. All NCEs were dissolved in DMSO and diluted further in culture medium. An aliquot of each dilution was added to the growing cells in 96 well plates and incubated for 48 hours. After incubation, the assay was terminated by adding 50 μL of trichloroacetic acid (TCA) and incubating at 4° C. for 30 min. The precipitated cells were washed and stained with sulphorhodamine B dye for 30 min and the excess dye was washed off with acetic acid. Adsorbed dye was solubilised in Tris base (alkaline pH) and quantitated by measuring the OD at […] in ELISA READER. GI50 (concentration which inhibits the cell growth by 50%) was calculated according to Boyd and Paull, (1995) Drug Dev. Res., 34, 91-109.

[2] = test system: U251 (human glioblastoma); assay: In vitro growth inhibition screen (sulphorhodamine B), U251; format: cell-based; conditions: U251 cells, incubated for 48 hours, sulphorhodamine B dye; read-out: GI50 (concentration which inhibits the cell growth by 50%), U251 Human glioblastoma astrocytoma
Method: as §1

[3] = test system: HT29 (colorectal adenocarcinoma); assay: In vitro growth inhibition screen (sulphorhodamine B), HT29; format: cell-based, human; conditions: HT29 cells, incubated for 48 hours, sulphorhodamine B dye; read-out: GI50 (concentration which inhibits the cell growth by 50%), HT29 Colorectal adenocarcinoma
Method: as §1

LOX (melanoma) = assay: In vitro growth inhibition screen (sulphorhodamine B), LOX; format: cell-based, human; conditions: LOX cells, incubated for 48 hours, sulphorhodamine B dye; read-out: GI50 (concentration which inhibits the cell growth by 50%), LOX Melanoma
Method: as §1

[4] = test system: DU145 (prostate carcinoma); assay: In vitro growth inhibition screen (sulphorhodamine B), DU145; format: cell-based, human; conditions: DU145 cells, incubated for 48 hours, sulphorhodamine B dye; read-out: GI50 (concentration which inhibits the cell growth by 50%), DU145 Prostate carcinoma
Method: as §1

[5] = test system: MCF7 (breast adenocarcinoma); assay: In vitro growth inhibition screen (sulphorhodamine B), MCF7; format: cell-based, human; conditions: MCF7 cells, incubated for 48 hours, sulphorhodamine B dye; read-out: GI50 (concentration which inhibits the cell growth by 50%), MCF7 Breast adenocarcinoma
Method: as §1

SMILES | GI50 [1] [µM] | GI50 [2] [µM] | GI50 [3] [µM] | GI50 (LOX (melanoma)) [µM] | GI50 [4] [µM] | GI50 [5] [µM]
CCCN1C(=O)[C@H](O)[C@@H](O)[C@H](O)[C@H]1CNC(=O)Nc1ccccc1 [Compound No. 24, N-Propyl-6-N-{[phenyl]aminocarbonylamino}-D-gluco-δ-lactam] | 262 | 231 | 213 | 169 | 296 | 157
CCCN1C(=O)[C@H](O)[C@@H](O)[C@H](O)[C@H]1CNC(=O)Nc1ccccc1C(F)(F)F [Compound No. 25, 6-N-{[2-Trifluoromethylphenyl]aminocarbonylamino}-N-propyl-D-gluco-δ-lactam] | 228 | 278 | 311 | 94.6 | 386 | 190
CCCN1C(=O)[C@H](O)[C@@H](O)[C@H](O)[C@H]1CNC(=O)Nc1ccc(C)cc1 [Compound No. 26, 6-N-{[p-Tolyl]aminocarbonylamino}-N-propyl-D-gluco-δ-lactam] | 235 | 520 | 209 | 116 | 278 | 136
CCCN1C(=O)[C@H](O)[C@@H](O)[C@H](O)[C@H]1CNC(=O)Nc1ccc(OC)cc1 [Compound No. 27, 6-N-{[p-Methoxyphenyl]aminocarbonylamino}-N-propyl-D-gluco-δ-lactam] | 481 | 323 | 232 | 193 | 413 | 214
CCCN1C(=O)[C@H](O)[C@@H](O)[C@H](O)[C@H]1CNC(=O)Nc1ccc(N)cc1 [Compound No. 28, 6-N-{[p-Aminophenyl]aminocarbonylamino}-N-propyl-D-gluco-δ-lactam] | 194 | 557 | 242 | 136 | 288 | 106
CCCN1C(=O)[C@H](O)[C@@H](O)[C@H](O)[C@H]1CNC(=O)Nc1ccc(F)cc1 [Compound No. 29, 6-N-{[4-Fluorophenyl]aminocarbonylamino}-N-propyl-D-gluco-δ-lactam] | 165 | 87 | 58.6 | 290 | 280 | 85.8
CCCN1C(=O)C(O)C(O)C(O)C1CNC(=O)NC(C)C [Compound No. 30, 6-N-{[Isopropyl]aminocarbonylamino}-N-propyl-D-gluco-δ-lactam] | 209 | 100 | 42.6 | 226 | 119 | 180
CCCN1C(=O)[C@H](O)[C@@H](O)[C@H](O)[C@H]1CNC(=O)Nc1ccc(C(F)(F)F)cc1 [Compound No. 31, 6-N-{[4-Trifluoromethylphenyl]aminocarbonylamino}-N-propyl-D-gluco-δ-lactam] | 131 | 82.2 | 79.5 | 132 | 113 | 139
CCCN1C[C@H](OCc2ccccc2)[C@@H](OCc2ccccc2)[C@H](OCc2ccccc2)[C@H]1CNC(=O)Nc1ccc(Cl)cc1 [Compound No. 36] | 19.1 | 11.7 | 0.8 | 0.9 | 16.7 | 0.3

Continued, values first:

GI50 [1] [µM] | GI50 [2] [µM] | GI50 [3] [µM] | GI50 (LOX (melanoma)) [µM] | GI50 [4] [µM] | GI50 [5] [µM] | SMILES
348 | 206 | 213 | 170 | 82.2 | > 528 | CCCN1C(=O)[C@H](OCc2ccccc2)[C@@H](OCc2ccccc2)[C@H](OCc2ccccc2)[C@H]1CNC(=O)Nc1c(Cl)cc(Cl)cc1Cl [Compound No. 17, 2,3,4-Tri-O-benzyl-6-N-{[2,4,6-trichlorophenyl]aminocarbonylamino}-N-propyl-D-gluco-δ-lactam]
2.9 | 2.6 | 2.2 | 2 | 2.5 | 2 | CCCN1C(=O)[C@H](OCc2ccccc2)[C@@H](OCc2ccccc2)[C@H](OCc2ccccc2)[C@H]1CNC(=O)Nc1ccc(Cl)c(Cl)c1 [Compound No. 18, 2,3,4-Tri-O-benzyl-6-N-{[3,4-dichlorophenyl]aminocarbonylamino}-N-propyl-D-gluco-δ-lactam]
> 592 | > 592 | > 592 | 81.8 | > 592 | > 592 | CCCN1C(=O)C(OCc2ccccc2)C(OCc2ccccc2)C(OCc2ccccc2)C1CNC(=O)Nc1ccc(Cl)cc1Cl [Compound No. 19, 2,3,4-Tri-O-benzyl-6-N-{[2,4-dichlorophenyl]aminocarbonylamino}-N-propyl-D-gluco-δ-lactam]
5.5 | 3.3 | 2.6 | 5.9 | 15.3 | 4.1 | CCCN1C(=O)C(OCc2ccccc2)C(OCc2ccccc2)C(OCc2ccccc2)C1CNC(=O)NC(C)C [Compound No. 20, 2,3,4-Tri-O-benzyl-6-N-{[isopropyl]aminocarbonylamino}-N-propyl-D-gluco-δ-lactam]
3.4 | 3.6 | 2 | 2.9 | 6.5 | 2.4 | CCCN1C(=O)[C@H](OCc2ccccc2)[C@@H](OCc2ccccc2)[C@H](OCc2ccccc2)[C@H]1CNC(=S)Nc1ccc(Cl)cc1 [Compound No. 21, 2,3,4-Tri-O-benzyl-6-N-{[4-chlorophenyl]aminothiocarbonylamino}-N-propyl-D-gluco-δ-lactam]
8.2 | 5.1 | 11.9 | 4.3 | 5.1 | 39.8 | CCCN1C(=O)[C@H](OCc2ccccc2)[C@@H](OCc2ccccc2)[C@H](OCc2ccccc2)[C@H]1CNC(=O)Nc1ccc(C(F)(F)F)cc1 [Compound No. 22, 2,3,4-Tri-O-benzyl-6-N-{[4-trifluoromethylphenyl]aminocarbonylamino}-N-propyl-D-gluco-δ-lactam]
26 | 4.2 | 28.7 | 35.7 | 50 | 5.6 | CCCN1C(=O)[C@H](OCc2ccccc2)[C@@H](OCc2ccccc2)[C@H](OCc2ccccc2)[C@H]1CNC(=O)NC12CC3CC(CC(C3)C1)C2 [Compound No. 23, 2,3,4-Tri-O-benzyl-6-N-{[1-adamantyl]aminocarbonylamino}-N-propyl-D-gluco-δ-lactam]
94.4 | 62 | 37.7 | 87.4 | 55.3 | 74.8 | CCCN1C(=O)[C@H](OC(C)=O)[C@@H](OC(C)=O)[C@H](OC(C)=O)[C@H]1CNC(=O)Nc1ccc(OC)cc1 [Compound No. 32, 2,3,4-Tri-O-acetyl-6-N-{[4-methoxyphenyl]aminocarbonylamino}-N-propyl-D-gluco-δ-lactam]
56.8 | 47.1 | 24.1 | 25.1 | 52.7 | 34.1 | CCCN1C(=O)[C@H](OC(C)=O)[C@@H](OC(C)=O)[C@H](OC(C)=O)[C@H]1CNC(=O)Nc1ccccc1 [Compound No. 33, 2,3,4-Tri-O-acetyl-6-N-{[phenyl]aminocarbonylamino}-N-propyl-D-gluco-δ-lactam]
63.4 | 28.3 | 38.4 | 130 | 78.2 | 26.1 | CCCN1C(=O)C(OC(C)=O)C(OC(C)=O)C(OC(C)=O)C1CNC(=O)Nc1ccc(F)cc1 [Compound No. 34, 2,3,4-Tri-O-acetyl-6-N-{[4-fluorophenyl]aminocarbonylamino}-N-propyl-D-gluco-δ-lactam]
9.3 | 5.8 | 19.4 | 8 | 14 | 7.6 | CCCN1C(=O)[C@H](O[Si](C)(C)C)[C@@H](O[Si](C)(C)C)[C@H](O[Si](C)(C)C)[C@H]1CNC(=O)Nc1ccccc1 [Compound No. 35, 2,3,4-Tri-O-trimethylsilyl-6-N-{[phenyl]aminocarbonylamino}-N-propyl-D-gluco-δ-lactam]
